Results taken from article PMC8962522, “Direct interaction of TrkA/CD44v3 is essential for NGF-promoted aggressiveness of breast cancer cells” (Journal of Experimental & Clinical Cancer Research : CR, 2022).

Experiments:
Type in all cases: cell-based
[1] = system: TrkA/CD44v3 complex in HCC-1954 cells; test: PLA TrkA/CD44v3 complex formation in HCC-1954 cells; conditions: Her2-like; NGF 100 ng/ml
Description: (§1) Cells (10,000 cells per well) were grown on acid-washed eight-well glass slides (Thermo Scientific) in the appropriate medium supplemented with 10% FBS for 24 h. After NGF treatment, paraformaldehyde (PAF)-fixed cells were incubated with 4% bovine serum albumin (BSA) or 5% FBS (for 1 h at 20 °C), followed by overnight incubation with primary antibodies (rabbit anti-TrkA or rabbit anti-IgG + mouse anti-pan-CD44; mouse anti-CD44v3; mouse anti-CD44v6; mouse anti-IgG2a; mouse anti-IgG2b; or mouse anti-IgG1). PLA was performed following the manufacturer’s instructions in the assay kit (Duolink PLA; Sigma–Aldrich). To obtain the correct representation of the PLA signal for each condition, 30 fields per condition were observed using a fluorescence microscope (Eclipse TiU; Nikon, Japan). The PLA signals (red dots) were automatically quantified using ImageJ software (with an in-house-developed plug-in). […]
(§2) Fig. 7 The TrkA/CD44v3 complex is formed in PR-negative breast cancer cells and tumors. TrkA/CD44v3 complex formation was measured in SUM159-PT (triple negative—i.e., ERα-, PR-, and Her2-) cells (A), T47-D (luminal A—i.e., ERα+, PR+, and Her2-) cells (B), BT-474 (luminal B—ERα+, PR+, and Her2+) cells (C), HCC-1954 (Her2-like—ERα-, PR-, and Her2+) cells (D), and 150 tumor patient samples obtained from US BioMax (HBre-Duc150Sur01) (E, F) using the proximity ligation assay (PLA). […]

[2] = system: TrkA/CD44v3 complex in SUM159-PT cells; test: PLA TrkA/CD44v3 complex formation in SUM159-PT cells; conditions: triple negative; NGF 100 ng/ml
Description: as §1, §2

MDA-MB-468 cells = test: Transwell invasion assay through collagen I, MDA-MB-468; conditions: collagen 1 Transwell, 16 h after treatment; "these effects" = decrease in basal and NGF-induced invasion
Description: Transwell invasion assays were performed to assess cancer cell invasion in a Transwell chamber containing a collagen I-coated membrane (12-wells with inserts and […] pore size membranes; Corning, Life Sciences). A total of 1 × 10^6 starved cells (0.1% in SVF medium) were plated in the top chamber and incubated for 10 min before treatment with a peptide (50 ng/mL for 30 min); NGF was added to the lower chamber. […] and stained with Hoechst 33258 (1 mg/mL) for 30 min, and the cells that invaded the lower surface through the pores of the inserts were automatically counted under an inverted microscope with ImageJ software (with an in-house-developed plug-in).
Supplementary file 13046_2022_2314_MOESM3_ESM.pdf: Additional file 3: Supplementary Figure 1. Validation of the ectopic expression of CD44 and/or TrkA in COS-7 cells. The expression of all CD44 isoforms (A), CD44 variant 3 (B), CD44 variant 6 (C) and TrkA ([…]; D) was evaluated by RT–qPCR (normalized using PUM-1). No expression of CD44, CD44 variants [3 or 6] or TrkA was detected in COS-7 cells (A-D) compared with that in cells transfected with the expression plasmid carrying each protein. […] Quantification of the PLA results was performed using ImageJ software (30 randomly chosen fields per condition of three different experiments). […] CD44v3 and CD44v6 levels at the plasma membrane were assessed by flow cytometry (A-D). […]

Row | Substance | effect on TrkA/CD44v3 complex formation (PLA) in HCC-1954 cells [1] | effect on TrkA/CD44v3 complex formation (PLA) in SUM159-PT cells [2] | effect on invasion of MDA-MB-468 cells (MDA-MB-468 cells)
1 | NGF: recombinant human β-NGF (Alomone Labs, Israel) | NGF induction of CD44v3/TrkA complex formation was observed in SUM-159PT (TN) and HCC-1954 (Her2) cells | NGF induction of CD44v3/TrkA complex formation was observed in SUM-159PT (TN) and HCC-1954 (Her2) cells | 
2 | IDDDEDFISST [Peptide 4, mimetic peptide 4 (…) corresponding to the C-terminal region of CD44v3] |  |  | These effects on invasion were also observed in the MDA-MB-468 triple-negative breast cancer cell line
